According to patent US20150299188A1, “HETEROCYCLIC COMPOUND” (priority 2012, published 2015):

Each compound was assayed on FLAP (5-lipoxygenase activating protein) (assay: In vitro binding test: displacement of [3H]-7-chloro-3-(5-((3-fluoropyridin-2-yl)methoxy)-2-methylphenyl)-3,4-dihydroquinazolin-2(1H)-one from Sf9 microsome fractions). Conditions: Sf9 microsome fractions expressing FLAP; 100% = radioligand binding with 10 μM sodium 3-(3-(tert-butylsulfanyl)-1-(4-chlorobenzyl)-5-isopropyl-1H-indol-2-yl)-2,2-dimethylpropanoate, 0% = DMSO; test compound concentration not given.
Parameters: species or system human and mouse
Experimental: As an assay buffer, 100 mM Tris-HCl, pH 7.5, 140 mM NaCl, 2 mM EDTA, 0.5 mM dithiothreitol, 5% glycerol, 0.05% Tween20 was used. Sf9 microsome fractions expressing human and mouse FLAPs were dispensed by 50 μL to a 96-well plate at 2 μg/mL. Furthermore, a test compound (25 μL) diluted 4-fold of the final concentration with the assay buffer was added and mixed therewith, and the mixture was incubated at room temperature for 10 min. Furthermore, 120 nM [^3H]-7-chloro-3-(5-((3-fluoropyridin-2-yl)methoxy)-2-methylphenyl)-3,4-dihydroquinazolin-2(1H)-one was added by 25 μL, and mixed therewith, and the mixture was incubated at room temperature for 60 min. Thereafter, the cells were transferred to a 96-well GF/B Unifilter plate with a FilterMate cell harvester, and washed 3 times with a wash buffer (100 mM Tris-HCl pH 7.5, 0.05% Tween20, 200 μL) cooled to 4° C. The GF/B Unifilter plate was dried at 37° C., Microscint 0 was added and measured by TopCount NXT (PerkinElmer). As for the inhibitory activity, the inhibitory rate was calculated wherein the [^3H]-7-chloro-3-(5-((3-fluoropyridin-2-yl)methoxy)-2-methylphenyl)-3,4-dihydroquinazolin-2(1H)-one binding amount in the presence of 10 μM sodium 3-(3-(tert-butylsulfanyl)-1-(4-chlorobenzyl)-5-isopropyl-1H-indol-2-yl)-2,2-dimethylpropanoate was 100%, and the [^3H]-7-chloro-3-(5-((3-fluoropyridin-2-yl)methoxy)-2-methylphenyl)-3,4-dihydroquinazolin-2(1H)-one binding amount in the presence of DMSO was 0%.

| inhibitory rate (%) | Compound |
| --- | --- |
| 99% | Cc1cc2c(cc1N1Cc3c(Cl)cnc(-c4c(C)noc4C)c3NC1=O)OC(c1ncccc1F)CC2 (single isomer, unassigned; (+)) [Example 12, (+)-5-chloro-8-(3,5-dimethyl-1,2-oxazol-4-yl)-3-(2-(3-fluoropyridin-2-yl)-6-methyl-3,4-dihydro-2H-chromen-7-yl)-3,4-dihydropyrido[3,4-d]pyrimidin-2(1H)-one] |
| 105% | Cc1cc2c(cc1N1Cc3c(Cl)cnc(-c4c(C)nn(C)c4C)c3NC1=O)OC(c1ncccc1F)CC2 (single isomer, unassigned; (+)) [Example 14, (+)-5-chloro-3-(2-(3-fluoropyridin-2-yl)-6-methyl-3,4-dihydro-2H-chromen-7-yl)-8-(1,3,5-trimethyl-1H-pyrazol-4-yl)-3,4-dihydropyrido[3,4-d]pyrimidin-2(1H)-one] |
| 102% | Cc1cc2c(cc1N1Cc3c(Cl)cnc(-c4c(C)nn(C)c4C)c3NC1=O)OC(c1ncccc1F)CC2 (single isomer, unassigned; (-)) [Example 15, (−)-5-chloro-3-(2-(3-fluoropyridin-2-yl)-6-methyl-3,4-dihydro-2H-chromen-7-yl)-8-(1,3,5-trimethyl-1H-pyrazol-4-yl)-3,4-dihydropyrido[3,4-d]pyrimidin-2(1H)-one] |
| 101% | Cc1cc2c(cc1N1Cc3c(Cl)cnc(-c4c(C)nn(C)c4C)c3NC1=O)OC(c1ncccc1F)CC2 (stereo not shown) [Example 13, 5-chloro-3-(2-(3-fluoropyridin-2-yl)-6-methyl-3,4-dihydro-2H-chromen-7-yl)-8-(1,3,5-trimethyl-1H-pyrazol-4-yl)-3,4-dihydropyrido[3,4-d]pyrimidin-2(1H)-one] |
| 102% | COc1cc2c(c(C3CC3)n1)CN(c1cc3c(cc1Cl)CCC(c1ncccc1F)O3)C(=O)N2 (stereo not shown) [Example 16, 3-(6-chloro-2-(3-fluoropyridin-2-yl)-3,4-dihydro-2H-chromen-7-yl)-5-cyclopropyl-7-methoxy-3,4-dihydropyrido[4,3-d]pyrimidin-2(1H)-one] |
| 110% | O=C1Nc2cc(=O)[nH]c(C3CC3)c2CN1c1cc2c(cc1Cl)CCC(c1ncccc1F)O2 (stereo not shown) [Example 17, 3-(6-chloro-2-(3-fluoropyridin-2-yl)-3,4-dihydro-2H-chromen-7-yl)-5-cyclopropyl-4,6-dihydropyrido[4,3-d]pyrimidine-2,7(1H,3H)-dione] |
| 88% | O=C1Nc2cc(OC(F)F)nc(C3CC3)c2CN1c1cc2c(cc1Cl)CCC(c1ncccc1F)O2 (stereo not shown) [Example 18, 3-(6-chloro-2-(3-fluoropyridin-2-yl)-3,4-dihydro-2H-chromen-7-yl)-5-cyclopropyl-7-(difluoromethoxy)-3,4-dihydropyrido[4,3-d]pyrimidin-2(1H)-one] |
| 102% | O=C1Nc2cc(OC(F)F)nc(C3CC3)c2CN1c1cc2c(cc1Cl)CC[C@H](c1ncccc1F)O2 [Example 19, 3-((2R)-6-chloro-2-(3-fluoropyridin-2-yl)-3,4-dihydro-2H-chromen-7-yl)-5-cyclopropyl-7-(difluoromethoxy)-3,4-dihydropyrido[4,3-d]pyrimidin-2(1H)-one] |
| 96% | O=C1Nc2cc(OC(F)F)nc(C3CC3)c2CN1c1cc2c(cc1Cl)CC[C@@H](c1ncccc1F)O2 [Example 20, 3-((2S)-6-chloro-2-(3-fluoropyridin-2-yl)-3,4-dihydro-2H-chromen-7-yl)-5-cyclopropyl-7-(difluoromethoxy)-3,4-dihydropyrido[4,3-d]pyrimidin-2(1H)-one] |
| 103% | COc1nccc2c1CN(c1cc3c(cc1C)CCC(c1ncccc1F)O3)C(=O)N2 (stereo not shown) [Example 21, 3-(2-(3-fluoropyridin-2-yl)-6-methyl-3,4-dihydro-2H-chromen-7-yl)-5-methoxy-3,4-dihydropyrido[4,3-d]pyrimidin-2 (1H)-one] |
| 109% | Cc1cc2c(cc1N1Cc3c(Cl)cncc3NC1=O)OC(c1ncccc1F)CC2 (stereo not shown) [Example 22, 5-chloro-3-(2-(3-fluoropyridin-2-yl)-6-methyl-3,4-dihydro-2H-chromen-7-yl)-3,4-dihydropyrido[3,4-d]pyrimidin-2(1H)-one] |
| 92% | COc1cncc2c1CN(c1cc3c(cc1C)CCC(c1ncccc1F)O3)C(=O)N2 (stereo not shown) [Example 23, 3-(2-(3-fluoropyridin-2-yl)-6-methyl-3,4-dihydro-2H-chromen-7-yl)-5-methoxy-3,4-dihydropyrido[3,4-d]pyrimidin-2(1H)-one] |
| 96% | Cc1cc2c(cc1N1Cc3c(ccnc3C(F)F)NC1=O)OC(c1ncccc1F)CC2 (stereo not shown) [Example 24, 5-(difluoromethyl)-3-(2-(3-fluoropyridin-2-yl)-6-methyl-3,4-dihydro-2H-chromen-7-yl)-3,4-dihydropyrido[4,3-d]pyrimidin-2 (1H)-one] |
| 99% | Cc1cc2c(cc1N1Cc3c(ccnc3C3CC3)NC1=O)OC(c1ncccc1F)CC2 (stereo not shown) [Example 25, 5-cyclopropyl-3-(2-(3-fluoropyridin-2-yl)-6-methyl-3,4-dihydro-2H-chromen-7-yl)-3,4-dihydropyrido[4,3-d]pyrimidin-2(1H)-one] |

Further lines, the compound ahead of its results:

| Compound | inhibitory rate (%) |
| --- | --- |
| O=C1Nc2ccnc(Cl)c2CN1c1cc2c(cc1Cl)CCC(c1ncccc1F)O2 (racemic) [Example 1, 5-chloro-3-(6-chloro-2-(3-fluoropyridin-2-yl)-3,4-dihydro-2H-chromen-7-yl)-3,4-dihydropyrido[4,3-d]pyrimidin-2(1H)-one] | 94% |
| Cc1cc2c(cc1N1Cc3c(Cl)cnc(-c4c(C)noc4C)c3NC1=O)OC(c1ncccc1F)CC2 (single isomer, unassigned; (-)) [Example 11, (−)-5-chloro-8-(3,5-dimethyl-1,2-oxazol-4-yl)-3-(2-(3-fluoropyridin-2-yl)-6-methyl-3,4-dihydro-2H-chromen-7-yl)-3,4-dihydropyrido[3,4-d]pyrimidin-2(1H)-one] | 109% |
| O=C1Nc2ccnc(Cl)c2CN1c1cc2c(cc1Cl)CC[C@@H](c1ncccc1F)O2 [Example 2, 5-chloro-3-((2S)-6-chloro-2-(3-fluoropyridin-2-yl)-3,4-dihydro-2H-chromen-7-yl)-3,4-dihydropyrido[4,3-d]pyrimidin-2(1H)-one] | 102% |
| O=C1Nc2ccnc(Cl)c2CN1c1cc2c(cc1Cl)CC[C@H](c1ncccc1F)O2 [Example 3, 5-chloro-3-((2R)-6-chloro-2-(3-fluoropyridin-2-yl)-3,4-dihydro-2H-chromen-7-yl)-3,4-dihydropyrido[4,3-d]pyrimidin-2(1H)-one] | 97% |
| Cc1cc2c(cc1N1Cc3c(ccnc3C(F)(F)F)NC1=O)OC(c1ncccc1F)CC2 (stereo not shown) [Example 4, 3-(2-(3-fluoropyridin-2-yl)-6-methyl-3,4-dihydro-2H-chromen-7-yl)-5-(trifluoromethyl)-3,4-dihydropyrido[4,3-d]pyrimidin-2(1H)-one] | 103% |
| Cc1cc2c(cc1N1Cc3c(ccnc3C(F)(F)F)NC1=O)O[C@@H](c1ncccc1F)CC2 [Example 5, 3-((2R)-2-(3-fluoropyridin-2-yl)-6-methyl-3,4-dihydro-2H-chromen-7-yl)-5-(trifluoromethyl)-3,4-dihydropyrido[4,3-d]pyrimidin-2(1H)-one] | 100% |
| Cc1cc2c(cc1N1Cc3c(ccnc3C(F)(F)F)NC1=O)O[C@H](c1ncccc1F)CC2 [Example 6, 3-((2S)-2-(3-fluoropyridin-2-yl)-6-methyl-3,4-dihydro-2H-chromen-7-yl)-5-(trifluoromethyl)-3,4-dihydropyrido[4,3-d]pyrimidin-2(1H)-one] | 98% |
| Cc1ncc(Cl)c2c1NC(=O)N(c1cc3c(cc1Cl)CCC(c1ncccc1F)O3)C2 (stereo not shown) [Example 7, 5-chloro-3-(6-chloro-2-(3-fluoropyridin-2-yl)-3,4-dihydro-2H-chromen-7-yl)-8-methyl-3,4-dihydropyrido[3,4-d]pyrimidin-2(1H)-one] | 98% |
| Cc1ncc(Cl)c2c1NC(=O)N(c1cc3c(cc1Cl)CC[C@H](c1ncccc1F)O3)C2 [Example 8, 5-chloro-3-((2R)-6-chloro-2-(3-fluoropyridin-2-yl)-3,4-dihydro-2H-chromen-7-yl)-8-methyl-3,4-dihydropyrido[3,4-d]pyrimidin-2(1H)-one] | 103% |
| Cc1ncc(Cl)c2c1NC(=O)N(c1cc3c(cc1Cl)CC[C@@H](c1ncccc1F)O3)C2 [Example 9, 5-chloro-3-((2S)-6-chloro-2-(3-fluoropyridin-2-yl)-3,4-dihydro-2H-chromen-7-yl)-8-methyl-3,4-dihydropyrido[3,4-d]pyrimidin-2(1H)-one] | 104% |
| Cc1cc2c(cc1N1Cc3c(Cl)cnc(-c4c(C)noc4C)c3NC1=O)OC(c1ncccc1F)CC2 (stereo not shown) [Example 10, 5-chloro-8-(3,5-dimethyl-1,2-oxazol-4-yl)-3-(2-(3-fluoropyridin-2-yl)-6-methyl-3,4-dihydro-2H-chromen-7-yl)-3,4-dihydropyrido[3,4-d]pyrimidin-2(1H)-one] | 94% |
